# Measured values reported in patent US20090085344A1, “Organic fluorescent sulfonyl ureido benzoxazinone pigments” (Honeywell International Inc., priority 2007, published 2009).
# Assays:
# Format in all cases: physicochemical
# [1] = Solubility of the powder in 2-butanone; settings: room temperature
# Procedure: (§1) In accordance with the present disclosure, 1-(para-toluenesulfonyl)-3-[2-(4-oxo-4H-benzo[d][1,3]oxazine-2-yl)-phenyl]urea, also named 1-(4-methylphenylsulfonyl)-3-[2-(4-oxo-4H-benzo[d][1,3]oxazine-2-yl)-phenyl]urea, where R^1, R^2, R^3 and R^4 are each hydrogen, and R^5 is 4-methylphenyl, was prepared according to the following procedure: A 250 mL three-neck bottle was charged at room temperature with anthranoylanthranilic acid (0.05 mol) and 100 mL methyl ethyl ketone. Para-toluenesulfonyl isocyanate (0.05 mol) was then added, with stirring, and the reaction mixture was heated under reflux at about 80° C. for about 4 hours. Thereafter, the resulting suspension was cooled to about 40° C., and acetic anhydride (40 mL) was added. The resulting mixture was heated for an additional 3 hours. After cooling to about 10° C., the precipitate was filtered under suction, washed with acetone, and dried at about 50° C. under atmospheric pressure to produce a white powder in about 70% -85% yield. The Emission (fluorescence) maximum of the resultant powder was 526 nm. The excitation maximum is/was 380 nm. […] Intensity of fluorescence of the powder was 350 cd/m^2, as measured with a Minolta luminance meter under 365 nm excitation. Solubility of the powder in 2-butanone was less than 0.5% at room temperature.
# [2] = Lightfastness: relative intensities at 0 hours and after 104 hours (FIGS. 1 and 2); settings: compared with Lumilux CD 397 and Lumilux CD 302
# Procedure: FIG. 1 is a comparative bar graph of the lightfastness of 1-(para-toluenesulfonyl)-3-[2-(4-oxo-4H-benzo[d]-[1,3]oxazine-2-yl)-phenyl]urea (compound 7), as compared with aliphatic ureidobenzoxazinone (UBO)(compound 11), Nitril-AUBO (compound 33), Lumiluxg CD 397, and Lumilux® CD 302, by measuring relative intensities at 0 hours and after 104 hours.
# FIG. 2 is a comparative bar graph of the percent (%) loss of intensity of lightfastness of 1-(para-toluenesulfonyl)-3-[2-(4-oxo-4H-benzo[d]-[1,3]oxazine-2-yl)-phenyl]urea (compound 7) relative to compound 11, compound 33, Lumilux® CD 397, and Lumilux® CD 302.
# Referring now to the Figures, FIG. 1 illustrates a comparative bar graph of the intensity of lightfastness (in cd/m^2) of 1-(para-toluenesulfonyl)-3-[2-(4-oxo-4H-benzo[d]-[1,3]oxazine-2-yl)-phenyl]urea (compound 7), which is shown relative to various ureido benzoxazinone compounds (UBO), such as aliphatic UBO (compound 11), Nitril-AUBO (compound 33), and Lumilux® CD 397 and Lumilux® CD 302.
# FIG. 2 is a comparative bar graph illustrating of the percent loss of intensity of lightfastness of 1-(para-toluenesulfonyl)-3-[2-(4-oxo-4H-benzo[d]-[1,3]oxazine-2-yl)-phenyl]urea (compound 7) compared with ureido benzoxazinone compounds (UBO) such as compound 11, compound 33, Lumilux® CD 397 and Lumiluxg CD 302.
# [3] = Intensity of fluorescence of the powder, Minolta luminance meter under 365 nm excitation
# Procedure: as §1
# [4] = Fluorescence emission and excitation maxima of the powder
# Description: The benzoxazinone compounds of the present disclosure are colorless, and fluoresce in the visible region. More specifically, the benzoxazinone compounds of the present disclosure produce a bright emission in a region from about 520 nm to about 540 nm wavelength when irradiated by UV light energy at about 366 nm wavelength. The benzoxazinone compounds have an excitation maximum at about 340 nm to about 420 nm wavelength.
# as §1
smiles,measurement,setting,value
"Cc1ccc(S(=O)(=O)NC(=O)Nc2ccccc2-c2nc3ccccc3c(=O)o2)cc1 [Example 1, 1-(para-toluenesulfonyl)-3-[2-(4-oxo-4H-benzo[d]-[1,3]oxazine-2-yl)-phenyl]urea]",Solubility of the powder in 2-butanone,[1],less than 0.5%
same,degree (intensity) of lightfastness,[2]; 0 hours and after 104 hours,greater degree (intensity) of lightfastness
same,loss of lightfastness intensity,[2]; after 104 hours,lower loss of lightfastness intensity
same,Intensity of fluorescence of the powder,[3],350 cd/m^2
same,Emission (fluorescence) maximum of the resultant powder,[4],526 nm
same,excitation maximum,[4],380 nm
"O=C(Nc1ccccc1-c1nc2ccccc2c(=O)o1)NS(=O)(=O)c1ccccc1 [Example 2, 1-(phenylsulfonyl)-3-[2-(4-oxo-4H-benzo[d]-[1,3]oxazine-2-yl)-phenyl]urea]",Solubility of the powder in 2-butanone,[1],less than 0.5%
same,Intensity of fluorescence of the powder,[3],320 cd/m^2
same,Emission (fluorescence) maximum of the resultant powder,[4],528 nm
same,excitation maximum,[4],380 nm
"Cc1ccccc1S(=O)(=O)NC(=O)Nc1ccccc1-c1nc2ccccc2c(=O)o1 [Example 3, 1-(2-methylphenylsulfonyl)-3-[2-(4-oxo-4H-benzo[d]-[1,3]oxazine-2-yl)-phenyl]urea]",Solubility of the powder in 2-butanone,[1],less than 1%
same,Intensity of fluorescence of the powder,[3],260 cd/M^2
same,Emission (fluorescence) maximum of the resultant powder,[4],530 nm
same,excitation maximum,[4],380 nm
"O=C(Nc1ccccc1-c1nc2ccccc2c(=O)o1)NS(=O)(=O)c1ccc(Cl)cc1 [Example 4, 1-(4-chlorophenylsulfonyl)-3-[2-(4-oxo-4H-benzo[d]-[1,3]oxazine-2-yl)-phenyl]urea]",Solubility of the powder in 2-butanone,[1],less than 0.5%
same,Intensity of fluorescence of the powder,[3],330 cd/m^2
same,Emission (fluorescence) maximum of the resultant powder,[4],539 nm
same,excitation maximum,[4],380 nm
